Results from ChEMBL document CHEMBL6071133, “Discovery of novel penetrating peptides able to target human leukemia and lymphoma for enhanced PROTAC delivery” (Eur J Med Chem, 2024).
Values belong to the compound of their own block, whether it stands above or below them. Active and inactive are the calls of the source. The calls are words filed in the database; no cut-off is given here. Square brackets hold non-standard residues; d marks the D form. Peptide text beside a SMILES is read from it. Bta = N[C@@H](Cc1csc2ccccc12)C(=O)O

Key:
[1] = Interaction with IMA-PROTAC assessed as induction of assembly formation by transmission electron microscopy; assay type: physicochemical
K562 [2] = assay: Increase in membrane permeability of IMA-PROTAC in human K562 cells assessed as potentiation of IMA-PROTAC-induced inhibition of STAT5 phosphorylation at PROTAC to compound concentration ratio of 1:5 incubated for 48 hrs in presence of 3 umol/L IMA-PROTAC by western blot analysis; assay type: functional, cell-based
[3] = Cytotoxicity against human THP-1 cells assessed as reduction in cell viability at higher concentrations incubated for 48 hrs by MTT assay; assay type: toxicity, cell-based; settings: read-out: INH
[4] = Stability of the compound in fetal bovine serum assessed as parent compound remaining measured after 12 hrs by HPLC-MS analysis; assay type: ADME, cell-free, Bos taurus; settings: cattle, read-out: Stability
K562 [5] = assay: Induction of apoptosis in human K562 cells assessed as viable cells at PROTAC to compound concentration ratio of 1:5 incubated for 48 hrs in presence of 3 umol/L IMA-PROTAC by AnnexinV-FITC/PI staining based flow cytometry (reference value: 99.85%); assay type: functional
K562 [6] = assay: Induction of apoptosis in human K562 cells assessed as early apoptotic cells at PROTAC to compound concentration ratio of 1:5 incubated for 48 hrs in presence of 3 umol/L IMA-PROTAC by AnnexinV-FITC/PI staining based flow cytometry (reference value: 0.03%); assay type: functional
[7] = Drug uptake in human THP-1 cells assessed as increase in fluorescence intensity at 10 umol/L incubated for 2 hrs by cell imaging based fluorescence microscopic analysis; assay type: ADME; settings: thp-1, 2 h, 10 µM, dose 10 µmol/L
[8] = Interaction with IMA-PROTAC assessed as induction of formation of micelle cluster with uniform and distinct spherical morphology by transmission electron microscopy; assay type: physicochemical
K562 [9] = assay: Induction of apoptosis in human K562 cells assessed as late apoptotic cells at PROTAC to compound concentration ratio of 1:5 incubated for 48 hrs in presence of 3 umol/L IMA-PROTAC by AnnexinV-FITC/PI staining based flow cytometry (reference value: 0.01%); assay type: functional
K562 [10] = assay: Increase in membrane permeability of IMA-PROTAC in human K562 cells assessed as potentiation of IMA-PROTAC-induced Bcr-Abl degradation at PROTAC to compound concentration ratio of 1:3 incubated for 48 hrs in presence of 3 umol/L IMA-PROTAC by western blot analysis; assay type: functional, cell-based
K562 [11] = assay: Induction of apoptosis in human K562 cells assessed as necrotic cells at PROTAC to compound concentration ratio of 1:5 incubated for 48 hrs in presence of 3 umol/L IMA-PROTAC by AnnexinV-FITC/PI staining based flow cytometry (reference value: 0.1%); assay type: functional
[12] = Stability of the compound in fetal bovine serum assessed as parent compound remaining measured after 36 hrs by HPLC-MS analysis; assay type: ADME, cell-free, Bos taurus; settings: cattle, read-out: Stability
[13] = Cytotoxicity against human KU812 cells assessed as cell viability at 0.01 to 100 uM incubated for 48 hrs by MTT assay; assay type: toxicity, cell-based; settings: dose 0.01-100 µM, read-out: Activity
[14] = Stability of the compound in fetal bovine serum assessed as parent compound remaining measured after 8 hrs by HPLC-MS analysis; assay type: ADME, cell-free, Bos taurus; settings: cattle, read-out: Stability
[15] = Cytotoxicity against human K562 cells assessed as cell viability at 0.01 to 100 uM incubated for 48 hrs by MTT assay; assay type: toxicity, cell-based; settings: dose 0.01-100 µM, read-out: Activity
[16] = Cytotoxicity against human CCRF-CEM cells assessed as cell viability at 0.01 to 100 uM incubated for 48 hrs by MTT assay; assay type: toxicity, cell-based; settings: dose 0.01-100 µM, read-out: Activity
[17] = Increase in membrane permeability of IMA-PROTAC in human K562 cells assessed as potentiation of IMA-PROTAC-induced Bcr-Abl degradation at PROTAC to compound concentration ratio of 1:5 incubated for 48 hrs in presence of 3 umol/L IMA-PROTAC by western blot analysis (reference value: 40%); assay type: functional
[18] = Drug uptake in human CCRF-CEM cells assessed as membrane penetration by measuring increase in fluorescence intensity at 5 umol/L incubated for 2 hrs by flow cytometry relative to C9C; assay type: ADME, cell-based; settings: 5 µM, dose 5 µmol/L
[19] = Drug uptake in human K562 cells assessed as membrane permeability at 5 umol/L incubated for 2 hrs by flow cytometry relative to C9C; assay type: ADME, cell-based; settings: k562, 2 h, 5 µM, dose 5 µmol/L
[20] = Drug uptake in human KU812 cells assessed as membrane permeability at 5 umol/L incubated for 2 hrs by flow cytometry relative to C9C; assay type: ADME, cell-based; settings: ku812, 2 h, 5 µM, dose 5 µmol/L

Activity [1]: Not Active
remaining at 12 h [4]: 80%
Drug uptake [7]: Active
Activity [8]: Not Active
remaining at 36 h [12]: 35%
remaining at 8 h [14]: 100%
Compound: CC(C)C[C@H](NC(=O)[C@H](Cc1c[nH]c2ccccc12)NC(=O)[C@H](Cc1ccc(O)cc1)NC(=O)[C@H](Cc1ccccc1)NC(=O)CNC(=O)[C@@H](N)CS)C(=O)N[C@@H](CCCNC(=N)N)C(=O)N[C@@H](CO)C(=O)N[C@@H](CS)C(=O)O (H-CGFYWLRSC-OH)
Activity (K562 [2]): Active
cytotoxicity at 48 h [3]: ~50%
Activity (K562 [5]): 86.18%
Activity (K562 [6]): 6.26%
Activity (K562 [9]): 7.46%
Activity (K562 [10]): Active
Activity (K562 [11]): 0.09%
viability at 48 h, up to 100 µM [13]: > 75%
viability at 48 h, up to 100 µM [15]: > 75%
viability at 48 h, up to 100 µM [16]: > 75%
Activity [17]: 60%

fold change (FC) [18]: 4.78
Compound: CC(C)C[C@H](NC(=O)[C@H](Cc1csc2ccccc12)NC(=O)[C@H](Cc1ccc(O)cc1)NC(=O)[C@H](Cc1ccccc1)NC(=O)CNC(=O)[C@@H](N)CS)C(=O)N[C@@H](CCCNC(=N)N)C(=O)N[C@@H](CO)C(=O)N[C@@H](CS)C(=O)O (H-CGFY[Bta]LRSC-OH)

Drug uptake [19]: 65%
Drug uptake [20]: 65%
Compound: CC(C)C[C@H](NC(=O)[C@H](Cc1csc2ccccc12)NC(=O)[C@H](Cc1ccc(O)cc1)NC(=O)[C@H](Cc1ccccc1)NC(=O)[C@H](CCCNC(=N)N)NC(=O)[C@@H](N)CS)C(=O)N[C@@H](CCCNC(=N)N)C(=O)N[C@@H](CO)C(=O)N[C@@H](CS)C(=O)O (H-CRFY[Bta]LRSC-OH)

fold change (FC) [18]: 3.1
Compound: CC(C)C[C@@H]1NC(=O)[C@H](Cc2c[nH]c3ccccc23)NC(=O)[C@H](Cc2ccc(O)cc2)NC(=O)[C@H](Cc2ccccc2)NC(=O)CNC(=O)[C@H](CCCCN)NC(=O)[C@H](CC(=O)O)NC(=O)[C@H](CO)NC(=O)[C@H](CCCNC(=N)N)NC1=O (cyclo(DKGFYWLRS))
